Assay results: patent publication US20260151383A1, “HETEROCYCLIC COMPOUNDS AND USES THEREOF” (KayoThera Inc., priority 2022, published 2026)

What was measured:
Format in all cases: biochemical
Settings in all cases: recombinant enzyme, 20° C., activity level classes
[1] = molecular target: T1, hALDH1a3 (Homo sapiens, UniProt P47895); test: Aldh1a3 enzyme inhibition assay (resorufin fluorescence), human enzyme
T1 construct: made in house; host or cells: E. coli BL21-DE3
T1 sequence (P47895 1-512): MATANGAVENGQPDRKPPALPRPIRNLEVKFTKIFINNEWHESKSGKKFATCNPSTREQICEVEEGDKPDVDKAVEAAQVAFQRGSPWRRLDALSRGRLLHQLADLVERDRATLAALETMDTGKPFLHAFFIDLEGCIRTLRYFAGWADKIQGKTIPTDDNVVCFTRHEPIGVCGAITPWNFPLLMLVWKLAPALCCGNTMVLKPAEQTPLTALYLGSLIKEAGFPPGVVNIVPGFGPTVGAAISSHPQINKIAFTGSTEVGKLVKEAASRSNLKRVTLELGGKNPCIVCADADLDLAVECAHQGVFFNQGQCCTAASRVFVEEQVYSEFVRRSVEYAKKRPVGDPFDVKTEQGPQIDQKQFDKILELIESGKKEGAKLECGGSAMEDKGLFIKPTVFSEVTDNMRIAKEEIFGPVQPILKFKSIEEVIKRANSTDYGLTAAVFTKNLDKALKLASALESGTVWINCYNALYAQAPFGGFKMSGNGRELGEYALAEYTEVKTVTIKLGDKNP

[2] = molecular target: T2, mALDH1a3 (Mus musculus, UniProt Q9JHW9); test: Aldh1a3 enzyme inhibition assay (resorufin fluorescence), mouse enzyme
T2 construct: made in house; host or cells: E. coli BL21-DE3
T2 sequence (Q9JHW9 1-512): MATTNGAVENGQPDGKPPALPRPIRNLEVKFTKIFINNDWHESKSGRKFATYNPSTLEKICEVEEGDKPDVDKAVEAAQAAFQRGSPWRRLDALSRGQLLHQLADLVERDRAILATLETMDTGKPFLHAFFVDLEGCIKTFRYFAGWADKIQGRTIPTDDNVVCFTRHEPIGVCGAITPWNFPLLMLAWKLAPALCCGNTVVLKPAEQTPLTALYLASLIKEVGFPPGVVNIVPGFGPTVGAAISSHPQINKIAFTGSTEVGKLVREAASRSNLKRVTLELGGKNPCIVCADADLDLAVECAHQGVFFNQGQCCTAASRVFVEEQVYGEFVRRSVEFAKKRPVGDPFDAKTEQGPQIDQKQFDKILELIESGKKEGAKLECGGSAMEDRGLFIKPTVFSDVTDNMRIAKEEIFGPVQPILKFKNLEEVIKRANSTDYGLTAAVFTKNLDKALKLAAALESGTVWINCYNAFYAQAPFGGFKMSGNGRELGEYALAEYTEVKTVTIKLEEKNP
From the text: Recombinant enzyme and inhibitor added immediately before assay. Reaction rate measured by resorufin fluorescence.

[3] = molecular target: T3, hALDH1a2 (Homo sapiens, UniProt O94788); test: Aldh1a2 enzyme inhibition assay (resorufin fluorescence), human enzyme
T3 construct: made in house; host or cells: E. coli BL21-DE3
T3 sequence (O94788 1-518): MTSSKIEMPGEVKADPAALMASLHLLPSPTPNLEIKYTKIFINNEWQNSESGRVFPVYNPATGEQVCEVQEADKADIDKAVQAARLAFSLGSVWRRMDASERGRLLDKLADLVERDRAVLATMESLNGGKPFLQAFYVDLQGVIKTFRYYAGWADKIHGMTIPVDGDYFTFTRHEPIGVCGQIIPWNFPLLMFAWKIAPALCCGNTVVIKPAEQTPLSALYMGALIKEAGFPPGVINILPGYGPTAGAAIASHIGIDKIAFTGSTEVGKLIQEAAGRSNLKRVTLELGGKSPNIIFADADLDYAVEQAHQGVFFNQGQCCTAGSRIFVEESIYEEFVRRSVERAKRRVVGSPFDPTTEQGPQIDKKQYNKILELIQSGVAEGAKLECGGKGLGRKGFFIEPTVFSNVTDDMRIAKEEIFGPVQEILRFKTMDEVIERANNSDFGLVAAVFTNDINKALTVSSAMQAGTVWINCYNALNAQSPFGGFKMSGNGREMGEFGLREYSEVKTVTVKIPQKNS
From the text: (§1) Recombinant enzyme and inhibitor added immediately before assay. Reaction rate measured by resorufln fluorescence.

[4] = molecular target: T4, mALDH1a2 (Mus musculus, UniProt Q62148); test: Aldh1a2 enzyme inhibition assay (resorufin fluorescence), mouse enzyme
T4 construct: made in house; host or cells: E. coli BL21-DE3
T4 sequence (Q62148 1-518): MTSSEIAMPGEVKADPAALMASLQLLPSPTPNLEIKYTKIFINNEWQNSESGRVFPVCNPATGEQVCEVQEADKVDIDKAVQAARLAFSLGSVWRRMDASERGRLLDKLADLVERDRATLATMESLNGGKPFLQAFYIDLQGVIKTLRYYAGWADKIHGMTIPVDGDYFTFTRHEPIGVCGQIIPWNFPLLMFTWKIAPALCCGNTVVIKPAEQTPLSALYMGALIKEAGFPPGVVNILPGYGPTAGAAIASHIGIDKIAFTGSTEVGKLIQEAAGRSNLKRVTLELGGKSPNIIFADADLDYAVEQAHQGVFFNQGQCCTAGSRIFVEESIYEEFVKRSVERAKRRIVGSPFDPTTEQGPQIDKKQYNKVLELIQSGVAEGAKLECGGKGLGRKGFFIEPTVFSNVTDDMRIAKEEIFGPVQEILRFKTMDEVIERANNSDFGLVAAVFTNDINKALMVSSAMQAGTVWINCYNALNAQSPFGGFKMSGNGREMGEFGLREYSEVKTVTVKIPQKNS
From the text: as §1

Row | IC50 [1] [nM] | IC50 [2] [nM] | IC50 [3] [nM] | IC50 [4] [nM] | mAldh1a3 IC50 [2] | hAldh1a3 IC50 [1] | hAldh1a2 IC50 [3] | mAldh1a2 IC50 [4] | Compound
1 | 250 to 1000 | < 100 | 250 to 1000 | 250 to 1000 |  |  |  |  | CCc1sncc1C(=O)Nc1cc(C)c2c(c1)CCC(=O)N2 [Compound 50]
2 | 1000 to 5000 | 100 to 250 | 250 to 1000 | 250 to 1000 |  |  |  |  | CCc1scnc1C(=O)Nc1cc2c(c(C3CC3)c1)NC(=O)CC2 [Compound 45]
3 | 1000 to 5000 |  | 100 to 250 | 250 to 1000 | No activity |  |  |  | Cc1cc(NC(=O)c2ccncc2-c2ccccc2F)cc2c1NC(=O)CC2 [Compound 2, 3-(2-fluorophenyl)-N-(8-methyl-2-oxo-1,2,3,4-tetrahydroquinolin-6-yl)isonicotinamide]
4 | 100 to 250 | 250 to 1000 | 250 to 1000 | 250 to 1000 |  |  |  |  | O=C(Nc1cc(F)c2c(c1)C1CC1C(=O)N2)c1ocnc1CC(F)(F)F (centres unmarked) [Compound 61]
5 | 250 to 1000 | 100 to 250 | 250 to 1000 | 250 to 1000 |  |  |  |  | CCc1ncoc1C(=O)Nc1cc(C)c2c(c1)C1CC1C(=O)N2 (centres unmarked) [Compound 60]
6 | > 5000 |  | 1000 to 5000 | 1000 to 5000 | No activity |  |  |  | O=C1CCc2cc(NC(=O)c3ccncc3-c3ccccc3F)ccc2N1 [Compound 25]
7 | 1000 to 5000 |  | 250 to 1000 | 250 to 1000 | No activity |  |  |  | Cc1cc(NC(=O)c2ccncc2-c2cccc(F)c2)cc2c1NC(=O)CC2 [Compound 3, 3-(3-fluorophenyl)-N-(8-methyl-2-oxo-1,2,3,4-tetrahydroquinolin-6-yl)isonicotinamide]
8 | < 100 | < 100 | < 100 | < 100 |  |  |  |  | CCc1ncsc1C(=O)Nc1cc(C)c2c(c1)C1CC1C(=O)N2 (centres unmarked) [Compound 34]
9 |  |  |  |  | No activity | No activity | No activity | No activity | Cc1cc(OCCNC(=O)c2cccc(F)c2)cc2c1NC(=O)CC2 [Compound 8, 3-fluoro-N-(2-((8-methyl-2-oxo-1,2,3,4-tetrahydroquinolin-6-yl)oxy)ethyl)benzamide]
10 | 100 to 250 | < 100 | 250 to 1000 | 250 to 1000 |  |  |  |  | O=C1CCc2cc(NC(=O)c3scnc3CC(F)(F)F)cc(Cl)c2N1 [Compound 35]
11 | < 100 | < 100 | 100 to 250 | 250 to 1000 |  |  |  |  | Cc1cc(NC(=O)c2scnc2CC2CC2)cc2c1NC(=O)CC2 [Compound 63]
12 | 250 to 1000 | 100 to 250 | 250 to 1000 | 250 to 1000 |  |  |  |  | Cc1cc(NC(=O)c2scnc2C2CC2)cc2c1NC(=O)CC2 [Compound 77]
13 | 250 to 1000 | 1000 to 5000 | 250 to 1000 | 1000 to 5000 |  |  |  |  | Cc1cc(NC(=O)c2scnc2CC(C)(C)C)cc2c1NC(=O)CC2 [Compound 64]
14 | > 5000 | 1000 to 5000 | > 5000 | > 5000 |  |  |  |  | Cc1cc(NC(=O)c2ccncc2CC(F)(F)F)cc2c1NC(=O)CS2(=O)=O [Compound 28]

The next lines start with the molecule.

Row | Compound | IC50 [1] [nM] | IC50 [2] [nM] | IC50 [3] [nM] | IC50 [4] [nM] | mAldh1a3 IC50 [2] | hAldh1a3 IC50 [1] | hAldh1a2 IC50 [3] | mAldh1a2 IC50 [4]
15 | O=C(Nc1cc(Cl)c2c(c1)C1CC1C(=O)N2)c1scnc1CC(F)(F)F (centres unmarked) [Compound 42] | 100 to 250 | < 100 | 250 to 1000 | 1000 to 5000 |  |  |  | 
16 | CCc1ncoc1C(=O)Nc1cc(C)c2c(c1)CCC(=O)N2 [Compound 57] | 250 to 1000 | 100 to 250 | 1000 to 5000 | 1000 to 5000 |  |  |  | 
17 | O=C1CCc2cc(NC(=O)c3ccccc3-c3cccc(F)c3)ccc2N1 [Compound 22] | > 5000 |  | > 5000 | > 5000 | No activity |  |  | 
18 | Cc1cc(NC(=O)c2ccncc2CC(F)(F)F)cc2c1NC(=O)CS2 [Compound 7] | 100 to 250 | 100 to 250 | 250 to 1000 | 250 to 1000 |  |  |  | 
19 | Cc1cc(NC(=O)c2ncsc2CC(F)(F)F)cc2c1NC(=O)C1CC21 (centres unmarked) [Compound 40] | < 100 | < 100 | < 100 | < 100 |  |  |  | 
20 | Cc1cc(NC(=O)c2cnsc2CC(F)(F)F)cc2c1NC(=O)CC2 [Compound 49] | < 100 | < 100 | < 100 | 100 to 250 |  |  |  | 
21 | Cc1cc(OCCN(C)Cc2cccc(F)c2)cc2c1NC(=O)CC2 [Compound 10] | 1000 to 5000 | 1000 to 5000 | 1000 to 5000 | 1000 to 5000 |  |  |  | 
22 | Cc1cc(NC(=O)c2ccncc2-c2ccccc2C#N)cc2c1NC(=O)CC2 [Compound 16] |  |  | > 5000 | > 5000 | No activity | No activity |  | 
23 | Cc1cc(NC(=O)c2ccncc2CC2(C)CC2)cc2c1NC(=O)CC2 [Compound 27] | < 100 | 250 to 1000 | 100 to 250 | 100 to 250 |  |  |  | 
24 | CCc1scnc1C(=O)Nc1cc(C)c2c(c1)C1CC1C(=O)N2 (centres unmarked) [Compound 39] | 250 to 1000 | 250 to 1000 | 250 to 1000 | 250 to 1000 |  |  |  | 
25 | O=C1CCc2cc(NC(=O)c3scnc3-c3cccc(F)c3)c(F)cc2N1 [Compound 5, N-(7-fluoro-2-oxo-1,2,3,4-tetrahydroquinolin-6-yl)-4-(3-fluorophenyl)thiazole-5-carboxamide] | < 100 | 100 to 250 | 1000 to 5000 | 1000 to 5000 |  |  |  | 
26 | CCc1ncsc1C(=O)Nc1cc(Cl)c2c(c1)CCC(=O)N2 [Compound 36] | 100 to 250 | < 100 | 250 to 1000 | 250 to 1000 |  |  |  | 
27 | Cc1cc(NC(=O)c2scnc2-c2cccc(F)c2)cc2c1NC(=O)CC2 [Compound 4, 4-(3-fluorophenyl)-N-(8-methyl-2-oxo-1,2,3,4-tetrahydroquinolin-6-yl)thiazole-5-carboxamide] | 100 to 250 | 250 to 1000 | 250 to 1000 | 250 to 1000 |  |  |  | 
28 | Cc1cc(NC(=O)c2ccncc2-c2cccc(C#N)c2)cc2c1NC(=O)CC2 [Compound 12] |  |  | 1000 to 5000 | > 5000 | No activity | No activity |  | 
29 | CCc1csnc1C(=O)Nc1cc(C)c2c(c1)C1CC1C(=O)N2 (centres unmarked) [Compound 46] | 100 to 250 | < 100 | 100 to 250 | 100 to 250 |  |  |  | 
30 | CCc1ncsc1C(=O)Nc1cc(C)c2c(c1)CCC(=O)N2 [Compound 32] | 100 to 250 | < 100 | 250 to 1000 | 250 to 1000 |  |  |  | 
31 | CCc1ncsc1C(=O)Nc1cc(Cl)c2c(c1)C1CC1C(=O)N2 (centres unmarked) [Compound 38] | 100 to 250 | < 100 | 100 to 250 | 100 to 250 |  |  |  | 
32 | CCc1nc[nH]c1C(=O)Nc1cc(C)c2c(c1)CCC(=O)N2 [Compound 59] | 1000 to 5000 | 250 to 1000 | 1000 to 5000 | 1000 to 5000 |  |  |  | 
